Test results taken from ChEMBL document CHEMBL3885881, “DrugMatrix”.

Species: Rattus norvegicus
Assay: DrugMatrix - Regimen: Daily Repeat
Format: toxicity, organism-based, Sprague-Dawley
Parameters: regimen Daily Repeat, gender Male, age 6-8 weeks
Details: in vivo, iv, vehicle 100 % SALINE; for ABSOLUTE BASOPHIL / ABSOLUTE EOSINOPHIL / ABSOLUTE LYMPHOCYTE / ABSOLUTE MONOCYTE / ABSOLUTE SEGMENTED NEUTROPHIL / BASOPHIL / EOSINOPHIL / ERYTHROCYTE COUNT / HEMATOCRIT / HEMOGLOBIN / LEUKOCYTE COUNT / LYMPHOCYTE / MEAN CORPUSCULAR HEMOGLOBIN / MEAN CORPUSCULAR HEMOGLOBIN CONCENTRATION / MEAN CORPUSCULAR VOLUME / MONOCYTE / NEUTROPHIL / NUCLEATED RED BLOOD CELLS / PLATELET COUNT: tissue Blood; for ALANINE AMINOTRANSFERASE / ALBUMIN / ALKALINE PHOSPHATASE / ASPARTATE AMINOTRANSFERASE / BLOOD UREA NITROGEN / CARBON DIOXIDE / CHLORIDE / CHOLESTEROL / CREATINE PHOSPHOKINASE / CREATININE / GLUCOSE / LACTATE DEHYDROGENASE / LIPASE / PHOSPHORUS / POTASSIUM / SODIUM / TOTAL BILIRUBIN / TOTAL PROTEIN / URIC ACID: tissue Plasma
[1] = 0.005 mg/kg, 120 h, dose level Low, time 5 day
[2] = 0.05 mg/kg, 72 h, dose level High, time 3 day
[3] = 0.05 mg/kg, 120 h, dose level High, time 5 day

For CC(=O)O[C@H]1C[C@@H]2CC[C@@H]3[C@H](CC[C@@]4(C)[C@H]3C[C@H]([N+]3(C)CCCCC3)[C@@H]4OC(C)=O)[C@@]2(C)C[C@@H]1N1CCCCC1.[Br-] [VECURONIUM BROMIDE], the “ABSOLUTE BASOPHIL” value [1] was 0 CELLS/uL, the “ABSOLUTE EOSINOPHIL” value [1] was 82.33 CELLS/uL and the “ABSOLUTE LYMPHOCYTE” value [1] was 12022.67 CELLS/uL. For the same molecule, the “ABSOLUTE MONOCYTE” value [1] was 265.33 CELLS/uL, the “ABSOLUTE SEGMENTED NEUTROPHIL” value [1] was 796.33 CELLS/uL and the BASOPHIL [1] was 0%. For the same molecule, the EOSINOPHIL [1] was 0.67%, the “ERYTHROCYTE COUNT” value [1] was 5.48 x10E6/uL and the HEMATOCRIT [1] was 34.87%. For the same molecule, the HEMOGLOBIN [1] was 13.83 G/DL, the “LEUKOCYTE COUNT” value [1] was 13.17 x10E3/uL and the LYMPHOCYTE [1] was 91%. The “MEAN CORPUSCULAR HEMOGLOBIN” value [1] was 25.23 pg, the “MEAN CORPUSCULAR HEMOGLOBIN CONCENTRATION” value [1] was 39.7 G/DL and the “MEAN CORPUSCULAR VOLUME” value [1] was 63.63 fL. For the same molecule, the MONOCYTE [1] was 2%, the NEUTROPHIL [1] was 6.33% and the “NUCLEATED RED BLOOD CELLS” value [1] was 0 /100WBC. The “PLATELET COUNT” value [1] was 1117 x10E3/uL, the “ALANINE AMINOTRANSFERASE” value [1] was 68.67 u/L and the ALBUMIN [1] was 4.17 G/DL. For the same molecule, the “ALKALINE PHOSPHATASE” value [1] was 419 u/L, the “ASPARTATE AMINOTRANSFERASE” value [1] was 85 u/L and the “BLOOD UREA NITROGEN” value [1] was 19.33 mg/dL. For the same molecule, the “CARBON DIOXIDE” value [1] was 30 mmol/L, the CHLORIDE [1] was 101.33 MEQ/L and the CHOLESTEROL [1] was 79 mg/dL. For the same molecule, the “CREATINE PHOSPHOKINASE” value [1] was 251.67 u/L, the CREATININE [1] was 0.25 mg/dL and the GLUCOSE [1] was 172 mg/dL. The “LACTATE DEHYDROGENASE” value [1] was 116.67 u/L, the LIPASE [1] was 10.33 u/L and the PHOSPHORUS [1] was 12 mg/dL. For the same molecule, the POTASSIUM [1] was 5.82 MEQ/L, the SODIUM [1] was 144.07 MEQ/L and the “TOTAL BILIRUBIN” value [1] was 0.2 mg/dL. The “TOTAL PROTEIN” value [1] was 5.9 G/DL, the “URIC ACID” value [1] was 1.27 mg/dL and the “ABSOLUTE BASOPHIL” value [2] was 0 CELLS/uL. For the same molecule, the “ABSOLUTE EOSINOPHIL” value [2] was 0 CELLS/uL, the “ABSOLUTE LYMPHOCYTE” value [2] was 14697.33 CELLS/uL and the “ABSOLUTE MONOCYTE” value [2] was 387 CELLS/uL. The “ABSOLUTE SEGMENTED NEUTROPHIL” value [2] was 1049 CELLS/uL, the BASOPHIL [2] was 0% and the EOSINOPHIL [2] was 0%. The “ERYTHROCYTE COUNT” value [2] was 5.35 x10E6/uL, the HEMATOCRIT [2] was 33.93% and the HEMOGLOBIN [2] was 13.67 G/DL. For the same molecule, the “LEUKOCYTE COUNT” value [2] was 16.13 x10E3/uL, the LYMPHOCYTE [2] was 91.33% and the “MEAN CORPUSCULAR HEMOGLOBIN” value [2] was 25.53 pg. For the same molecule, the “MEAN CORPUSCULAR HEMOGLOBIN CONCENTRATION” value [2] was 40.27 G/DL, the “MEAN CORPUSCULAR VOLUME” value [2] was 63.37 fL and the MONOCYTE [2] was 2.33%. For the same molecule, the NEUTROPHIL [2] was 6.33%, the “NUCLEATED RED BLOOD CELLS” value [2] was 0 /100WBC and the “PLATELET COUNT” value [2] was 1089.33 x10E3/uL. For the same molecule, the “ALANINE AMINOTRANSFERASE” value [2] was 70.67 u/L, the ALBUMIN [2] was 4.17 G/DL and the “ALKALINE PHOSPHATASE” value [2] was 375.33 u/L. For the same molecule, the “ASPARTATE AMINOTRANSFERASE” value [2] was 108 u/L, the “BLOOD UREA NITROGEN” value [2] was 15.67 mg/dL and the “CARBON DIOXIDE” value [2] was 28.33 mmol/L. The CHLORIDE [2] was 103.33 MEQ/L, the CHOLESTEROL [2] was 83 mg/dL and the “CREATINE PHOSPHOKINASE” value [2] was 435 u/L. For the same molecule, the CREATININE [2] was 0.25 mg/dL, the GLUCOSE [2] was 145.33 mg/dL and the “LACTATE DEHYDROGENASE” value [2] was 607.67 u/L. For the same molecule, the LIPASE [2] was 12 u/L, the PHOSPHORUS [2] was 12.1 mg/dL and the POTASSIUM [2] was 6.48 MEQ/L. For the same molecule, the SODIUM [2] was 142.47 MEQ/L, the “TOTAL BILIRUBIN” value [2] was 0.17 mg/dL and the “TOTAL PROTEIN” value [2] was 5.87 G/DL. For the same molecule, the “URIC ACID” value [2] was 1.4 mg/dL, the “ABSOLUTE BASOPHIL” value [3] was 0 CELLS/uL and the “ABSOLUTE EOSINOPHIL” value [3] was 0 CELLS/uL. The “ABSOLUTE LYMPHOCYTE” value [3] was 14510.33 CELLS/uL, the “ABSOLUTE MONOCYTE” value [3] was 51 CELLS/uL and the “ABSOLUTE SEGMENTED NEUTROPHIL” value [3] was 705.33 CELLS/uL. The BASOPHIL [3] was 0%, the EOSINOPHIL [3] was 0% and the “ERYTHROCYTE COUNT” value [3] was 5.55 x10E6/uL. The HEMATOCRIT [3] was 33.37%, the HEMOGLOBIN [3] was 13.47 G/DL and the “LEUKOCYTE COUNT” value [3] was 15.27 x10E3/uL. For the same molecule, the LYMPHOCYTE [3] was 95%, the “MEAN CORPUSCULAR HEMOGLOBIN” value [3] was 24.3 pg and the “MEAN CORPUSCULAR HEMOGLOBIN CONCENTRATION” value [3] was 40.33 G/DL. For the same molecule, the “MEAN CORPUSCULAR VOLUME” value [3] was 60.17 fL, the MONOCYTE [3] was 0.33% and the NEUTROPHIL [3] was 4.67%. The “NUCLEATED RED BLOOD CELLS” value [3] was 0 /100WBC, the “PLATELET COUNT” value [3] was 1036.67 x10E3/uL and the “ALANINE AMINOTRANSFERASE” value [3] was 50.33 u/L. The ALBUMIN [3] was 3.93 G/DL, the “ALKALINE PHOSPHATASE” value [3] was 347.67 u/L and the “ASPARTATE AMINOTRANSFERASE” value [3] was 100.33 u/L. For the same molecule, the “BLOOD UREA NITROGEN” value [3] was 18 mg/dL, the “CARBON DIOXIDE” value [3] was 26 mmol/L and the CHLORIDE [3] was 104 MEQ/L. For the same molecule, the CHOLESTEROL [3] was 57.67 mg/dL, the “CREATINE PHOSPHOKINASE” value [3] was 706.67 u/L and the CREATININE [3] was 0.15 mg/dL. For the same molecule, the GLUCOSE [3] was 145.67 mg/dL, the “LACTATE DEHYDROGENASE” value [3] was 811.33 u/L and the LIPASE [3] was 9.67 u/L. It also gave a PHOSPHORUS [3] of 10.97 mg/dL, a POTASSIUM [3] of 6.19 MEQ/L and an SODIUM [3] of 144.13 MEQ/L. The “TOTAL BILIRUBIN” value [3] was 0.2 mg/dL, the “TOTAL PROTEIN” value [3] was 5.53 G/DL and the “URIC ACID” value [3] was 1.17 mg/dL.
